From patent US5240961A, “Method of treating reduced insulin-like growth factor and bone loss associated with aging” (priority 1992, dated 1993)
“And” between values parts separate entries of the source, which are not always exact repeats. Equal values may be shown once. “Also recorded” adds a separate entry of the source. Read-outs that look alike come from different tables or passages of the source. Blank lines part the entries; values can stand above or below the compound they belong to.

Assays:
[1] = Serum carnitine at 12 weeks in adult mice fed L-carnitine, acetyl carnitine or γ-butyrobetaine; set-up: species or system mouse (BALB/c male); settings: mouse, in vivo, po
Description: (§1) The present invention is further explained by the following examples which should not be construed by way of limiting the scope of the present invention. In the following examples, serum carnitine levels were determined by the method of R. Parvin et al., Anal. Biochem., vol. 79 (1979) pp. 190-201. Serum IGF-1 concentrations were measured by immunoradiometric assay, for example, by IRMA Kit available from Diagnostic Systems Laboratories, Inc., Webster, Texas. Serum osteocalcin levels were measured according to the method of Grunaberg et al., Meth. Enzymology, vol 107 (1984) 516, and which is embodied in an osteocalcin kit available from Biomedical Technologies, Inc., Stoughton, Mass. All mice used in the animal studies were BALB/c strain which is commercially available.
(§2) Tests were performed to compare the effects on serum osteocalcin of diet supplementation with L-carnitine, its precursor, γ-butyrobetaine (available from Aldrich Chemical Co.) and one of its metabolites, acetylcarnitine (available from Life Science Resources, Milwaukee, Wis. 53223). Twenty adult mice, i.e., three months of age, (BALB/c male mice) were divided into seven groups. Each of the groups was fed diets as indicated hereinbelow for twelve weeks. One group (n=3) was fed a diet with L-carnitine supplementation at a dose of 50 mg/kg of body weight each day, while the second group (n=3) was fed L-carnitine at a daily dose of about 100 mg/kg. The third group (n=2) was fed a diet with acetylcarnitine supplementation at a daily dose of 50 mg/kg, while the fourth group (n=3) was fed a daily dose of 100 mg/kg of this compound. The fifth group (n=2) was fed a daily dose of 50 mg/kg of γ-butyrobetaine supplementation,while the sixth group was fed a daily dose of 100 mg/kg of γ-butyrobetaine. The seventh group (n=4) was fed normal, unsupplemented feed (control). Mouse blood was sampled prior to beginning of the trial (pretreatment), at six weeks, and at the end of the trial (twelve weeks). The samples were evaluated for serum osteocalcin levels at six and twelve weeks. Total carnitine was determined at twelve weeks.

[2] = test system: serum osteocalcin; assay: Comparative effects of L-carnitine, acetyl carnitine and γ-butyrobetaine on serum osteocalcin in adult mice; assay type: in vivo, mouse (BALB/c male); settings: for Osteocalcin: actual intake estimated about half
Description: as §1, §2

[3] = prolonged treatment, moderate or high doses; cited from earlier work
[4] = test system: body composition; settings: replacement doses; cited from earlier work
[5] = prolonged treatment, moderate or high doses; cited from earlier work; remark: listed apart in the source
[6] = human beings; cited from earlier work
[7] = test system: children with carnitine deficiency; settings: carnitine repletion; cited from earlier work
[8] = compared to other vitamin D analogues; cited from earlier work

Compound: CC(=O)O[C@H](CC(=O)[O-])C[N+](C)(C)C [acetyl L-carnitine, acetylcarnitine, reference compound]
concentration at 2016 h ([1]; 50 mg/kg/day, 12 wks, read-out: Serum carnitine, Free): 45.6 µM | concentration at 2016 h ([1]; 50 mg/kg/day, 12 wks, read-out: Serum carnitine, Total): 59.6 µM | concentration at 2016 h ([1]; 100 mg/kg/day, 12 wks, read-out: Serum carnitine, Free): 52.1 µM | concentration at 2016 h ([1]; 100 mg/kg/day, 12 wks, read-out: Serum carnitine, Total): 65.1 µM | significance of difference in osteocalcin vs control (p, student's t test) ([2]; 50 mg/kg/day): < 0.01 | Osteocalcin ([2]; 50 mg/kg/day, 6 wks): 70 ng/mL and 70 ± 4 ng/mL | Osteocalcin ([2]; 50 mg/kg/day, 12 wks): 62 ng/mL | Osteocalcin ([2]; 100 mg/kg/day, 6 wks): 60 ng/mL and 61 ± 6 ng/mL | Osteocalcin ([2]; 100 mg/kg/day, 12 wks): 77 ng/mL

Compound: IGF-1: insulin-like growth factor 1, produced and released by the liver in response to growth hormone
potential side-effects [3]: abdominal bloating, indigestion and nausea, and alteration in cellular insulin receptor sites

Compound: growth hormone: pituitary growth hormone, now readily available as a biosynthetic product
alterations in body composition [4]: can be reversed by replacement doses of the hormone | side-effects observed [5]: stimulation of neoplastic growth, acromegaly, amenorrhea, flushing and nausea, "dawn" phenomena (a condition of insulin insufficiency which is very dangerous for diabetics), either hyperglycemia or hypoglycemia in diabetics, and fluid retention

concentration at 2016 h ([1]; 50 mg/kg/day, Serum carnitine, Free): 40.7 µM | concentration at 2016 h ([1]; 50 mg/kg/day, Serum carnitine, Total): 63.2 µM | concentration at 2016 h ([1]; 100 mg/kg/day, Serum carnitine, Free): 40.4 µM | concentration at 2016 h ([1]; 100 mg/kg/day, Serum carnitine, Total): 58.5 µM
Compound: C[N+](C)(C)CCCC(=O)[O-] [γ-butyrobetaine, 4-trimethylamino butyrate]
significance of difference in osteocalcin vs control (p, student's t test) ([2]; 50 mg/kg/day): < 0.05 | Osteocalcin ([2]; 50 mg/kg/day, 6 wks): 184 ng/mL and 184 ± 6 ng/mL | Osteocalcin ([2]; 50 mg/kg/day, 12 wks): 173 ng/mL | significance of difference in osteocalcin vs control (p, student's t test) ([2]; 100 mg/kg/day): < .01 | Osteocalcin ([2]; 100 mg/kg/day, 6 wks): 220 ng/mL and 220 ± 75 ng/mL | Osteocalcin ([2]; 100 mg/kg/day, 12 wks): 122 ng/mL | effect on osteocalcin ([2]; adult mice, 50 and 100 mg/kg/day): stimulate osteocalcin production in adult mice; also recorded: maintained osteocalcin blood levels; also recorded: at least as effective as, and possibly better than, L-carnitine in increasing osteocalcin levels

Compound: C[N+](C)(C)CC(O)CC(=O)[O-] (stereo not drawn) [carnitine, β-hydroxy-γ-N-trimethylammounium butyrate]
serum half-life [6]: about 30 minutes | stunted growth [7]: normalizes with carnitine repletion

Compound: C=C1/C(=C\C=C2/CCC[C@]3(C)[C@@H]([C@H](C)/C=C/[C@H](C)C(C)C)CC[C@@H]23)C[C@@H](O)C[C@@H]1O [1α-hydroxy vitamin D2]
toxicity [8]: low toxicity
